Experimental data published in patent US9850283B2, “Macrocyclic inhibitors of the PD-1/PD-L1 and CD80(B7-1)/PD-L1 protein/protein interactions” (BRISTOL-MYERS SQUIBB COMPANY, priority 2013, dated 2017).
Starred links: 1 amine or outer side, 2 acyl side, 3 side chain; linkers in the order of their positions; H or OH if unused. Positions of bridges follow the written chain, without caps; N, C: chain ends. Non-standard residues stand in square brackets, D forms with d. Residues, ends and D or L forms follow the SMILES beside them. ξ: configuration not given here. ξPro(4R-NH2) = O=C(C1C[C@@H](N[*:3])CN1[*:1])[*:2]; Bta = N[C@@H](Cc1csc2ccccc12)C(=O)O; ξPro(4R-OH) = O=C(O)C1C[C@@H](O)CN1; NMeNle = CCCC[C@H](NC)C(=O)O; αMeP = C[C@@]1(C(=O)O)CCCN1; NMeS = CN[C@@H](CO)C(=O)O; NMeA = CN[C@@H](C)C(=O)O; ξPip = O=C(O)C1CCCCN1; ξAze = O=C(O)C1CCN1; Sar = CNCC(=O)O

Target: T1, Human PD-L1/PD-1 (Homo sapiens, UniProt Q9NZQ7)
T1 construct: made in house; host or cells: HEK293T
Assay: HTRF PD-1-Ig/PD-L1-His binding assay (human PD-L1)
Conditions: Table 8, Compound No. 1 variant macrocyclic peptides; read-out: HTRF Human PD-L1/PD-1 Binding Assay IC50
Text: The ability of the macrocyclic peptides of the present disclosure to bind to PD-L1 was investigated using a PD-1/PD-L1 Homogenous Time-Resolved Fluorescence (HTRF) binding assay.
Homogenous Time-Resolved Fluorescence (HTRF) Assays of Binding of Soluble PD-1 to Soluble PD-L1. Soluble PD-1 and soluble PD-L1 refers to proteins with carboxyl-end truncations that remove the transmembrane-spanning regions and are fused to heterologous sequences, specifically the Fc portion of the human immunoglobuling G sequence (Ig) or the hexahistidine epitope tag (His). All binding studies were performed in an HTRF assay buffer consisting of dPBS supplemented with 0.1% (w/v) bovine serum albumin and 0.05% (v/v) Tween-20. […] PD-L1 fusion proteins from either human, cynomologous macaques, or mouse were used. HTRF detection was achieved using europium crypate-labeled anti-Ig monoclonal antibody (1 nM final) and allophycocyanin (APC) labeled anti-His monoclonal antibody (20 nM final). Antibodies were diluted in HTRF detection buffer and 5 μl was dispensed on top of binding reaction.

T1 sequence (Q9NZQ7 with tags, fused parts or gaps): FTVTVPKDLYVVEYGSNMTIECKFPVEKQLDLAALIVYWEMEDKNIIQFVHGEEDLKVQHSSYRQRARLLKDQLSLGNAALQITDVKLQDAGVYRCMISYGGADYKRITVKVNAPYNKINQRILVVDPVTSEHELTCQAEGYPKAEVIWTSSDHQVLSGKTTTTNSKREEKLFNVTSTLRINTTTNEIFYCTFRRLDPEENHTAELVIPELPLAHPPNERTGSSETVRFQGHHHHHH

IC50 [nM] | Compound
> 10000 | CCCC[C@H]1C(=O)N(C)[C@@H](CCCC)C(=O)N[C@@H](CCCNC(=N)N)C(=O)N[C@H](C(=O)NCC(N)=O)CSCC(=O)N[C@@H](Cc2ccccc2)C(=O)N(C)[C@@H](C)C(=O)N[C@H](CC(N)=O)C(=O)N2CCC[C@H]2C(=O)N[C@@H](Cc2c[nH]cn2)C(=O)N[C@@H](CC(C)C)C(=O)N(C)CC(=O)N[C@@H](Cc2c[nH]c3ccccc23)C(=O)N[C@@H](CO)C(=O)N[C@@H](Cc2c[nH]c3ccccc23)C(=O)N1C [Compound No. 42] ({CH2CO}-F[NMeA][dN]PHL[Sar]WSW[NMeNle][NMeNle]RCG-NH2; thioether N-14)
34 | CCCC[C@H]1C(=O)N(C)[C@@H](CCCC)C(=O)N[C@@H](CCCNC(=N)N)C(=O)N[C@H](C(=O)NCC(N)=O)CSCC(=O)N[C@@H](Cc2ccccc2)C(=O)N(C)[C@@H](C)C(=O)N[C@@H](CC(N)=O)C(=O)N2CCCCC2C(=O)N[C@@H](Cc2cnc[nH]2)C(=O)N[C@@H](CC(C)C)C(=O)N(C)CC(=O)N[C@@H](Cc2c[nH]c3ccccc23)C(=O)N[C@@H](CO)C(=O)N[C@@H](Cc2c[nH]c3ccccc23)C(=O)N1C (some centres unmarked) [Compound No. 44] ({CH2CO}-F[NMeA]N[ξPip]HL[Sar]WSW[NMeNle][NMeNle]RCG-NH2; thioether N-14)
27 | CCCC[C@H]1C(=O)N(C)[C@@H](CCCC)C(=O)N[C@@H](CCCNC(=N)N)C(=O)N[C@H](C(=O)NCC(N)=O)CSCC(=O)N[C@@H](Cc2ccccc2)C(=O)N(C)[C@@H](C)C(=O)N[C@@H](CC(N)=O)C(=O)N2C[C@H](O)CC2C(=O)N[C@@H](Cc2cnc[nH]2)C(=O)N[C@@H](CC(C)C)C(=O)N(C)CC(=O)N[C@@H](Cc2c[nH]c3ccccc23)C(=O)N[C@@H](CO)C(=O)N[C@@H](Cc2c[nH]c3ccccc23)C(=O)N1C (stereo partly drawn) [Compound No. 47] ({CH2CO}-F[NMeA]N[ξPro(4R-OH)]HL[Sar]WSW[NMeNle][NMeNle]RCG-NH2; thioether N-14)
40 | CCCC[C@H]1C(=O)N(C)[C@@H](CCCC)C(=O)N[C@@H](CCCNC(=N)N)C(=O)N[C@H](C(=O)NCC(N)=O)CSCC(=O)N[C@@H](Cc2ccccc2)C(=O)N(C)[C@@H](C)C(=O)N[C@@H](CC(N)=O)C(=O)N2C[C@H](N)CC2C(=O)N[C@@H](Cc2cnc[nH]2)C(=O)N[C@@H](CC(C)C)C(=O)N(C)CC(=O)N[C@@H](Cc2c[nH]c3ccccc23)C(=O)N[C@@H](CO)C(=O)N[C@@H](Cc2c[nH]c3ccccc23)C(=O)N1C (stereo partly drawn) [Compound No. 48] ({CH2CO}-F[NMeA]N[ξPro(4R-NH2)]HL[Sar]WSW[NMeNle][NMeNle]RCG-NH2; thioether N-14)
34 | CCCC[C@H]1C(=O)N(C)[C@@H](CCCC)C(=O)N[C@@H](CCCNC(=N)N)C(=O)N[C@H](C(=O)NCC(N)=O)CSCC(=O)N[C@@H](Cc2ccccc2)C(=O)N(C)[C@@H](C)C(=O)N[C@@H](CC(N)=O)C(=O)N2CCC[C@@]2(C)C(=O)N[C@@H](Cc2cnc[nH]2)C(=O)N[C@@H](CC(C)C)C(=O)N(C)CC(=O)N[C@@H](Cc2c[nH]c3ccccc23)C(=O)N[C@@H](CO)C(=O)N[C@@H](Cc2c[nH]c3ccccc23)C(=O)N1C [Compound No. 49] ({CH2CO}-F[NMeA]N[αMeP]HL[Sar]WSW[NMeNle][NMeNle]RCG-NH2; thioether N-14)
71 | CCCC[C@H]1C(=O)N(C)[C@@H](CCCC)C(=O)N[C@@H](CCCNC(=N)N)C(=O)N[C@H](C(=O)NCC(N)=O)CSCC(=O)N[C@@H](Cc2ccccc2)C(=O)N(C)[C@@H](C)C(=O)N[C@@H](CC(N)=O)C(=O)N2CCC2C(=O)N[C@@H](Cc2cnc[nH]2)C(=O)N[C@@H](CC(C)C)C(=O)N(C)CC(=O)N[C@@H](Cc2c[nH]c3ccccc23)C(=O)N[C@@H](CO)C(=O)N[C@@H](Cc2c[nH]c3ccccc23)C(=O)N1C (some centres unmarked) [Compound No. 50] ({CH2CO}-F[NMeA]N[ξAze]HL[Sar]WSW[NMeNle][NMeNle]RCG-NH2; thioether N-14)
13 | CCCC[C@H]1C(=O)N(C)[C@@H](CCCC)C(=O)N[C@@H](CCCNC(=N)N)C(=O)N[C@H](C(=O)NCC(N)=O)CSCC(=O)N[C@@H](Cc2ccccc2)C(=O)N(C)[C@@H](C)C(=O)N[C@@H](CC(N)=O)C(=O)N2CCC[C@H]2C(=O)N[C@@H](Cc2cnc[nH]2)C(=O)N[C@@H](CC(C)C)C(=O)N(C)[C@@H](CO)C(=O)N[C@@H](Cc2c[nH]c3ccccc23)C(=O)N[C@@H](CO)C(=O)N[C@@H](Cc2c[nH]c3ccccc23)C(=O)N1C [Compound No. 56] ({CH2CO}-F[NMeA]NPHL[NMeS]WSW[NMeNle][NMeNle]RCG-NH2; thioether N-14)
> 10000 | CCCC[C@H]1C(=O)N(C)[C@@H](CCCC)C(=O)N[C@@H](CCCNC(=N)N)C(=O)N[C@H](C(=O)NCC(N)=O)CSCC(=O)N[C@@H](Cc2ccccc2)C(=O)N(C)[C@@H](C)C(=O)N[C@@H](CC(N)=O)C(=O)N2CCC[C@H]2C(=O)N[C@@H](Cc2c[nH]cn2)C(=O)N[C@@H](CC(C)C)C(=O)N(C)CC(=O)N[C@@H](Cc2c[nH]c3ccccc23)C(=O)N[C@H](CCC(N)=O)C(=O)N[C@@H](Cc2c[nH]c3ccccc23)C(=O)N1C [Compound No. 59] ({CH2CO}-F[NMeA]NPHL[Sar]W[dQ]W[NMeNle][NMeNle]RCG-NH2; thioether N-14 (inferred))
43 | CCCC[C@H]1C(=O)N(C)[C@@H](CCCC)C(=O)N[C@@H](C)C(=O)N[C@H](C(=O)NCC(N)=O)CSCC(=O)N[C@@H](Cc2ccccc2)C(=O)N(C)[C@@H](C)C(=O)N[C@@H](CC(N)=O)C(=O)N2CCC[C@H]2C(=O)N[C@@H](Cc2cnc[nH]2)C(=O)N[C@@H](CC(C)C)C(=O)N(C)CC(=O)N[C@@H](Cc2c[nH]c3ccccc23)C(=O)N[C@H](C)C(=O)N[C@@H](Cc2c[nH]c3ccccc23)C(=O)N1C [Compound No. 60] ({CH2CO}-F[NMeA]NPHL[Sar]W[dA]W[NMeNle][NMeNle]ACG-NH2; thioether N-14)
31 | CCCC[C@H]1C(=O)N(C)[C@@H](CCCC)C(=O)N[C@@H](CCCNC(=N)N)C(=O)N[C@H](C(=O)NCC(N)=O)CSCC(=O)N[C@@H](Cc2ccccc2)C(=O)N(C)[C@@H](C)C(=O)N[C@@H](CC(N)=O)C(=O)N2CCC[C@H]2C(=O)N[C@@H](Cc2cnc[nH]2)C(=O)N[C@@H](CC(C)C)C(=O)N(C)CC(=O)N[C@@H](Cc2c[nH]c3ccccc23)C(=O)N[C@@H](CO)C(=O)N[C@@H](CCSC)C(=O)N1C [Compound No. 61] ({CH2CO}-F[NMeA]NPHL[Sar]WSM[NMeNle][NMeNle]RCG-NH2; thioether N-14)
7 | CCCC[C@H]1C(=O)N(C)[C@@H](CCCC)C(=O)N[C@@H](CCCNC(=N)N)C(=O)N[C@H](C(=O)NCC(N)=O)CSCC(=O)N[C@@H](Cc2ccccc2)C(=O)N(C)[C@@H](C)C(=O)N[C@@H](CC(N)=O)C(=O)N2CCC[C@H]2C(=O)N[C@@H](Cc2cnc[nH]2)C(=O)N[C@@H](CC(C)C)C(=O)N(C)CC(=O)N[C@@H](Cc2c[nH]c3ccccc23)C(=O)N[C@@H](CO)C(=O)N[C@@H](Cc2csc3ccccc23)C(=O)N1C [Compound No. 64] ({CH2CO}-F[NMeA]NPHL[Sar]WS[Bta][NMeNle][NMeNle]RCG-NH2; thioether N-14)
43 | CCCC[C@H]1C(=O)N[C@@H](CCCNC(=N)N)C(=O)N[C@H](C(=O)NCC(N)=O)CSCC(=O)N[C@@H](Cc2ccccc2)C(=O)N(C)[C@@H](C)C(=O)N[C@@H](CC(N)=O)C(=O)N2CCC[C@H]2C(=O)N[C@@H](Cc2cnc[nH]2)C(=O)N[C@@H](CC(C)C)C(=O)N(C)CC(=O)N[C@@H](Cc2c[nH]c3ccccc23)C(=O)N[C@@H](CO)C(=O)N[C@@H](Cc2c[nH]c3ccccc23)C(=O)N(C)[C@@H](CC(C)C)C(=O)N1C [Compound No. 65] (HELM PEPTIDE1{[O=C(C[*:3])[*:2]].F.[meA].N.P.H.L.[Sar].W.S.W.[meL].[CCCC[C@@H](C(=O)[*:2])N(C)[*:1]].R.C.G.[am]}$PEPTIDE1,PEPTIDE1,1:R3-15:R3$$$V2.0)
108 | CCCC[C@H]1C(=O)N[C@@H](CCCNC(=N)N)C(=O)N[C@H](C(=O)NCC(N)=O)CSCC(=O)N[C@@H](Cc2ccccc2)C(=O)N(C)[C@@H](C)C(=O)N[C@@H](CC(N)=O)C(=O)N2CCC[C@H]2C(=O)N[C@@H](Cc2cnc[nH]2)C(=O)N[C@@H](CC(C)C)C(=O)N(C)CC(=O)N[C@@H](Cc2c[nH]c3ccccc23)C(=O)N[C@@H](CO)C(=O)N[C@@H](Cc2c[nH]c3ccccc23)C(=O)N(C)[C@@H](Cc2ccccc2)C(=O)N1C [Compound No. 67] (HELM PEPTIDE1{[O=C(C[*:3])[*:2]].F.[meA].N.P.H.L.[Sar].W.S.W.[meF].[CCCC[C@@H](C(=O)[*:2])N(C)[*:1]].R.C.G.[am]}$PEPTIDE1,PEPTIDE1,1:R3-15:R3$$$V2.0)

Same assay, conditions: Table 9, Compound No. 71 variant macrocyclic peptides; read-out: HTRF Human PD-L1/PD-1 Binding Assay IC50

IC50 [nM] | Compound
14 | CCCC[C@H]1C(=O)NCC(=O)N[C@@H](CC(=O)O)C(=O)N[C@@H](C(C)C)C(=O)N(C)[C@@H](Cc2ccccc2)C(=O)N[C@@H](Cc2ccc(O)cc2)C(=O)N(C)CC(=O)N[C@@H](Cc2c[nH]c3ccccc23)C(=O)N[C@@H](Cc2ccc(O)cc2)C(=O)N[C@@H](CC(C)C)C(=O)N[C@H](C(=O)NCC(N)=O)CSCC(=O)N[C@@H](Cc2ccccc2)C(=O)N(C)[C@@H](Cc2ccccc2)C(=O)N1C [Compound No. 78] (HELM PEPTIDE1{[O=C(C[*:3])[*:2]].F.[meF].[CCCC[C@@H](C(=O)[*:2])N(C)[*:1]].G.D.V.[meF].Y.[Sar].W.Y.L.C.G.[am]}$PEPTIDE1,PEPTIDE1,1:R3-14:R3$$$V2.0)
